Assay results as given in patent US9949953B2, “Topical compositions comprising fipronil and permethrin and methods of use” (priority 2012, dated 2018).

Tested on: Stomoxys calcitrans
Test: Stable fly repellency and parasiticidal (diptericidal) efficacy on rats (Example 1)
Format: in vivo
Protocol: This study evaluated the effectiveness of a formulation of the invention containing fipronil and permethrin to repel and kill Stomoxys calcitrans on rats after a single administration. Rats in the treatment group (Group 2) were treated once on Day 0 with a topical formulation of the invention containing 9.2 (w/w) fipronil and 41.5% (w/w) permethrin in a solvent system containing DMDA and DGME in a ratio of 0.73:1, DMDA to DGME, to deliver a dose of 30 mg/kg permethrin and 6.7 mg/kg fipronil. Rats in Group 3 were treated with a formulation containing permethrin alone to deliver a dose of 30 mg/kg. The two treatment groups were compared with a control group treated with a solvent system placebo.
Flies are exposed to the treated rats for 1 hr., then removed. Dead flies are counted at the end of the exposure period and at 4 hr and 24 hr post-exposure. […] This finding is significant because fipronil is not known to have repellent activity.
The diptericidal efficacy of the formulations is shown in Table 1 and represented in FIG. 6. The data for repellency are shown in Table 2 and are represented in FIG. 7.

CC1(C)C(C=C(Cl)Cl)C1C(=O)OCc1cccc(Oc2ccccc2)c1 (stereo not shown) [Permethrin]
4 hr % efficacy (dead flies 4 hr post-exposure, single topical treatment Day 0): 82.0% | 24 hr % efficacy (dead flies 24 hr post-exposure, single topical treatment Day 0): 74.7% | EOE % efficacy (dead flies at end of 1 hr exposure period, single topical treatment Day 0): 74.2% | % Repellency (single topical treatment Day 0, measured 24 hours after exposure): 41.2%
